These results are taken from patent publication US6368529B1, “Lignocellulosic composite” (U.S. Borax Inc., priority 2000, dated 2002).

The nature of data set [1]: Borate content of composite after two weeks water leaching. The class given is physicochemical. The following applies: leached two weeks. Here is the method: (§1) The panels to be leached (4.5″×4.5″) were edge sealed with an epoxy sealant and leached for two weeks. Leaching began with pressure treatment of the specimens with water for 30 minutes under vacuum and one hour under pressure. The specimens were removed from the pressure treatment chamber and the residual water was changed after two hours, then daily for the remainder of the leaching period. Afterward, they were trimmed to remove the sealed edges and cut into analytical/soil block test samples. Unleached and leached analytical/soil block samples for each board type were separately randomized. Fifteen were analyzed for borate content and ten were retained for the soil block decay test.

Data set [2] in a line: Bulk solids flow testing, J. R. Johanson Indicizer System. The format is physicochemical. The following applies: for Hopper Index Stainless Steel / Chute Index Stainless Steel: 304-2B Stainless Steel; for Hopper Index Stainless Steel / Hopper Index Plastic / Hopper Index Carbon Steel: maximum angle from the vertical, larger is better; for Chute Index Stainless Steel / Chute Index Plastic / Chute Index Carbon Steel: minimum angle from horizontal, smaller is better; for Hopper Index Plastic / Chute Index Plastic: Tivar UHMWPE plastic; for Hopper Index Carbon Steel / Chute Index Carbon Steel: aged carbon steel; for Arching Index / Ratholing Index: multiple of the discharge opening, less than 1 necessary for free flow, average of 3-6 tests. The text has this: Bulk solids flow testing was done using the J. R. Johanson Indicizer System, including a Hang-up Indicizer and Hopper Indicizer, manufactured by J R Johanson, Inc. 712 Fiero Lane #37, San Luis Obispo, Calif. 93401. The test procedures are described in detail in their company literature (BULK SOLIDS INDICES TESTING, Hang-up Indicizer™ Instruction Manual ©JR Johanson, Inc. 1991 and BULK SOLIDS INDICES TESTING, Hopper Indicizer™ Instruction Manual ©JR Johanson, Inc. 1991). The results are presented in the following Table 3 as the Arching Index, Ratholing Index, Hopper Index and Chute Index, which are the average of several tests (3-6). The meaning and usefulness of these flow indices in evaluating the flow properties of bulk solids are also described in literature from JR Johanson, Inc., including Binside Scoop™, Vol. 7, No. 2, Fall 1994, Binside Scoop™, Vol. 8, No. 3, Winter 1995, and “Bulk solids Flow Indices—A Simplified Evaluation system”, by Jerry R. Johanson, ©JR Johanson, 1991.
Arching Index—A tendency of a cohesive material is to plug up the opening of a bin by forming an “arch” over the discharge opening. The arching index is given as a multiple of the discharge opening, so less than 1 is necessary for free flow. Numbers greater than 1 reflect a need to enlarge the opening.
Ratholing Index—A tendency of a cohesive material is to hang up on the sides of a bin while an open hole forms in the center and flow ceases. Rathole indices are also given as a multiple of the discharge opening and a number of less than 1 is necessary for free flow. Numbers greater than 1 mean the bins should be redesigned.
Hopper Index—The maximum angle, measured in degrees from the vertical, that is required for the conical portion of a hopper in order to produce reliable mass flow. A larger number is better.
Chute Index—The minimum angle, measured in degrees from horizontal, required for flow down a chute and to prevent material buildup at impact areas. A smaller number is better. Chute indices may often be close to the angle of repose.
Both hopper and chute indices measurements involve friction over a specified surface and measurements are made using substrates of the material of construction. The substrates used for these tests are 304-2B Stainless Steel, aged carbon steel and Tivar UHMWPE (ultra high molecular weight polyethylene) plastic.

For data set [3], the system named is Trametes versicolor (MAD 697). Put plainly: Soil block decay test (AWPA E10-87), white rot. The format is cell-based.
Description: (§2) Wood flakeboard was manufactured by conventional wood processing techniques, incorporating various borates at a range of concentrations, from 0.5 to 2.0% boric acid equivalent (BAE). Boric acid (H3BO3) equivalent is a commonly used convention for comparing various borates on an equivalent contained-boron basis. For each borate/loading combination, fifteen pounds of aspen (Populus tremuloides) furnish having an average particle size of about 2.5×0.75×0.025 inches, was blended with 0.75 pounds (5%) Rubinate 1840 (product of ICI), a polymeric methylene diphenyl diisocyanate adhesive, 0.11 pounds (0.75%) of Cascowax EW 403HS (product of Borden) and various concentrations of nine test borates. For each borate/loading combination, three 18″×18″ composite boards of 0.5 inch thickness were formed by pressing for 210 seconds at (180 seconds pressure, 30 seconds pressure release) at 204.5° C. (the pressure was kept in excess of 6000 psi during the pressure cycle). Each board was trimmed to 15″×15″ and cut to produce internal bond and analytical/soil block specimens for evaluation. Replicates were cut from the inner portion of the boards. Four internal bond, two leaching panels and twenty analytical/soil block specimens were cut from each board.
as §1
(§3) The soil block test was conducted in accordance with AWPA E10-87, with the exception that soil block dimensions were 1.0″×1.0″×0.5″. The fungi used were Gloeophyllum trabeum (ATCC 11539) for brown rot test and Trametes versicolor (MAD 697) for white rot test. An untreated composite control was run both unleached and leached. Solid southern yellow pine and birch were also run as unleashed controls against G. trabeum and T. versicolor, respectively as a test of fungal vigor.

Data set [4] has as its system Gloeophyllum trabeum (ATCC 11539). Put plainly: Soil block decay test (AWPA E10-87), brown rot. The class given is cell-based.
Description: as §2, §1, §3

Where [5] appears, read: target loading 0.5% BAE (0.09% B).
Where [6] appears, read: target loading 1.0% BAE (0.17% B).
The mark [7] stands for this setting: target loading 2.0% BAE (0.35% B).
[8] abbreviates: leached two weeks, target loading 0.5% BAE (0.09% B).
The mark [9] stands for this setting: leached two weeks, target loading 1.0% BAE (0.17% B).
[10] abbreviates: leached two weeks, target loading 2.0% BAE (0.35% B).
The mark [11] stands for this setting: unleached aspen flakeboard, target loading 0.5% BAE (0.09% B).
[12] abbreviates: unleached aspen flakeboard, target loading 1.0% BAE (0.17% B).
Setting [13] is: unleached aspen flakeboard, target loading 2.0% BAE (0.35% B).

Take Nobleite: the “Assay % B” value came to 0.03 % B in data set [1] (setting [5]), 0.06 % B in data set [1] (setting [6]) and 0.09 % B in data set [1] (setting [7]). The “Hopper Index Stainless Steel” value in data set [2] amounted to 16 degrees. The “Chute Index Stainless Steel” value in data set [2] stood at 45 degrees. In data set [2], the “Hopper Index Plastic” value was determined as 17 degrees. Moreover, in data set [2], the “Chute Index Plastic” value came to 41 degrees. The “Hopper Index Carbon Steel” value in data set [2] was 14 degrees. Besides, the “Chute Index Carbon Steel” value in data set [2] is recorded as 47 degrees. For the same substance, in data set [2] (compared with zinc borate, Colemanite F and Colemanite, Glass Grade), the “Flow properties, summary” value is recorded as “superior flow properties”. Also, in data set [2], the “Arching Index” value stood at 0.2. Further, the “Ratholing Index” value in data set [2] stood at 0.5. The “Mean % Wt. Loss T. versicolor” value in data set [3] (setting [8]) is on record as 27.6%; in data set [3] (setting [9]) it was 11.6%; in data set [3] (setting [10]), 10.1%; in data set [3] (setting [11]), 5.3%; in data set [3] (setting [12]) it was 3.6%; in data set [3] (setting [13]), 2.6%. Besides, the “Mean % Wt. Loss G. trabeum” value in data set [4] (setting [8]) came to 5.4%; in data set [4] (setting [9]) it was 1.4%; in data set [4] (setting [10]), 1.5%; in data set [4] (setting [11]), 1.1%; in data set [4] (setting [12]), 1.0%; in data set [4] (setting [13]) it was 1.4%.

With Colemanite [Colemanite (2)], the “Assay % B” value in data set [1] (setting [5]) stood at 0.04 % B; in data set [1] (setting [6]) it was 0.08 % B; in data set [1] (setting [7]), 0.18 % B. In data set [2] (listed as Colemanite F), the “Hopper Index Stainless Steel” value came out at 1.3 degrees. The “Chute Index Stainless Steel” value in data set [2] (listed as Colemanite F) is recorded as 90 degrees. The “Hopper Index Plastic” value in data set [2] (listed as Colemanite F) is on record as 4.2 degrees. Further, in data set [2], the “Chute Index Plastic” value is 90 degrees. Also, the “Hopper Index Carbon Steel” value in data set [2] (listed as Colemanite F) came to 2.7 degrees. Besides, the “Chute Index Carbon Steel” value in data set [2] (listed as Colemanite F) was determined as 90 degrees. The “Arching Index” value in data set [2] (listed as Colemanite F) was 0.4. In addition, the “Ratholing Index” value in data set [2] (listed as Colemanite F) is 3.9. Also, in data set [3] (after leaching), the “Comparison with zinc borate against T. versicolor” value is listed as “roughly comparable to zinc borate”. Besides, the “Mean % Wt. Loss T. versicolor” value was 19.9% in data set [3] (setting [8]); 5.1% in data set [3] (setting [9]); 2.2% in data set [3] (setting [10]); 5.1% in data set [3] (setting [11]); 2.3% in data set [3] (setting [12]); 2.2% in data set [3] (setting [13]). In data set [4] (after leaching), the “Comparison with zinc borate against G. trabeum” value is on record as “roughly comparable to zinc borate”. Moreover, the “Mean % Wt. Loss G. trabeum” value in data set [4] (setting [8]) is given as 3.4%; in data set [4] (setting [9]), 1.6%; in data set [4] (setting [10]) it was 1.3%; in data set [4] (setting [11]), 0.8%; in data set [4] (setting [12]) it was 0.6%; in data set [4] (setting [13]), 1.1%.

With Zinc Borate [reference compound], the “Assay % B” value in data set [1] (setting [5]) is listed as 0.05 % B; in data set [1] (setting [6]), 0.10 % B; in data set [1] (setting [7]), 0.23 % B. Moreover, the “Hopper Index Stainless Steel” value in data set [2] is reported as 13 degrees. For the same substance, in data set [2], the “Chute Index Stainless Steel” value is on record as 38 degrees. Moreover, the “Hopper Index Plastic” value in data set [2] came out at 13 degrees. Further, the “Chute Index Plastic” value in data set [2] stood at 58 degrees. Besides, in data set [2], the “Hopper Index Carbon Steel” value is on record as 12 degrees. Besides, the “Chute Index Carbon Steel” value in data set [2] was found to be 44 degrees. Further, the “Arching Index” value in data set [2] was 0.5. The “Ratholing Index” value in data set [2] turned out to be 2.9. For the same substance, the “Mean % Wt. Loss T. versicolor” value was 22.9% in data set [3] (setting [8]); 7.0% in data set [3] (setting [9]); 2.0% in data set [3] (setting [10]); 8.3% in data set [3] (setting [11]); 2.9% in data set [3] (setting [12]); 1.6% in data set [3] (setting [13]). For the same substance, the “Mean % Wt. Loss G. trabeum” value came out at 2.3% in data set [4] (setting [8]); 0.9% in data set [4] (setting [9]); 0.8% in data set [4] (setting [10]); 0.9% in data set [4] (setting [11]); 0.8% in data set [4] (setting [12]); 1.0% in data set [4] (setting [13]).
